Test results from patent US6413517B1, “Identification of broadly reactive DR restricted epitopes” (Epimmune, Inc., priority 1997, dated 2002).
Read-outs that look alike come from different tables or passages of the source.

Legend:
DRB1*0901 (DR9) = molecular target: T1, DRB1*0901 (DR9) (Homo sapiens, UniProt P01903+P01911, A100R/A103E/D57H/D86V/F55Y/F60I/F76Y/I96F/K127E/L162R/M171V/P40D/Q125H/Q99R/R33Q/R42F/S133A/S66N/T210M/V115G/W38K/Y107V/Y59G/Y89S); experiment: biochemical; format: binding
T1 construct: Epstein-Barr virus (EBV) transformed homozygous cell lines were used as sources; endogenous in cells

DRB1*0401 (DR4w4) = molecular target: T2, DRB1*0401 (DR4w4) (Homo sapiens, UniProt P01903+P01911, A100K/A169T/F76Y/I96L/K127E/L162R/M171V/N62H/P40V/Q125Y/R42H/S133A/S149N/S66Y/V115G/V209L/W38E); experiment: biochemical; format: binding
T2 construct: Epstein-Barr virus (EBV) transformed homozygous cell lines were used as sources; endogenous in cells; host or cells: PREISS (EBV-transformed homozygous B cell line)

DRB1*0301 (DR3w17) [1] = molecular target: T3, DRB1*0301 (DR3w17) (Homo sapiens, UniProt P01903+P01911, A100K/A102G/A103R/A169T/F55Y/I96L/K41T/L162R/M171V/P40S/Q125H/Q178H/Q39Y/R42S/S66N/T106N/T262R/W38E/Y61H); experiment: biochemical; conditions: Binding Capacity (IC50% nM) DR3
DRB1*0802 (DR8w2) = molecular target: T4, DRB1*0802 (DR8w2) (Homo sapiens, UniProt P01903+P01911, A100R/A103L/A169T/F76Y/H45Y/I96F/K41T/L162R/M171V/P40S/Q125H/Q178H/Q39Y/Q99D/R218S/R42G/S66Y/V115G/W38E); experiment: biochemical; format: binding
T4 construct: Epstein-Barr virus (EBV) transformed homozygous cell lines were used as sources; endogenous in cells; host or cells: OLL (EBV-transformed homozygous B cell line)

DRB1*0301 (DR3w17) [2] = molecular target: T3, DRB1*0301 (DR3w17); conditions: read-out: Binding Capacity (IC 50% nM) Other Alleles DR3
DRB5*0101 (DR2w2a) = molecular target: T5, DRB5*0101 (DR2w2a) (Homo sapiens, UniProt P01903+Q30154); experiment: biochemical; format: binding
T5 construct: Epstein-Barr virus (EBV) transformed homozygous cell lines were used as sources; endogenous in cells; host or cells: GM3107 (EBV-transformed homozygous B cell line)

DRB1*1101 (DR5w11) = molecular target: T6, DRB1*1101 (DR5w11) (Homo sapiens, UniProt P01903+P01911, A100R/A169T/A87E/I96F/K41T/L162R/M171V/P40S/Q125H/Q178H/Q39Y/Q99D/R42S/S66Y/T262R/V115G/W38E); experiment: biochemical; format: binding
T6 construct: Epstein-Barr virus (EBV) transformed homozygous cell lines were used as sources; endogenous in cells; host or cells: SWEIG (EBV-transformed homozygous B cell line)

DRB1*0405 (DR4w15) = molecular target: T7, DRB1*0405 (DR4w15) (Homo sapiens, UniProt P01903+P01911, A100R/A169T/D86S/F76Y/I96L/K127E/L162R/M171V/N62H/P40V/Q125Y/R42H/S133A/S149N/S66Y/V115G/V209L/W38E); experiment: biochemical; format: binding
T7 construct: Epstein-Barr virus (EBV) transformed homozygous cell lines were used as sources; endogenous in cells; host or cells: KT3 (EBV-transformed homozygous B cell line)

DRB1*0701 (DR7) = molecular target: T8, DRB1*0701 (DR7) (Homo sapiens, UniProt P01903+P01911, A100R/A102G/A103Q/D57E/D86V/E43K/F76Y/K127E/L162R/M171V/P40G/Q125H/Q99D/R33Q/R42Y/R54Q/S133A/S66F/T210M/V115G/Y107V/Y59L/Y89S); experiment: biochemical; format: binding
T8 construct: Epstein-Barr virus (EBV) transformed homozygous cell lines were used as sources; endogenous in cells; host or cells: PITOUT (EBV-transformed homozygous B cell line)

DRB1*1501 (DR2w2b) = molecular target: T9, DRB1*1501 (DR2w2b) (Homo sapiens, UniProt P01903+P01911); experiment: biochemical; format: binding
T9 construct: expressed in transfected cells; host or cells: transfected fibroblasts L466.1

DRB1*1201 (DR5w12) = molecular target: T10, DRB1*1201 (DR5w12) (Homo sapiens, UniProt P01903+P01911, A100R/A169T/D57E/D86V/F55L/H45Y/K41T/L162R/M171V/P40S/Q125H/Q178H/Q39Y/Q99D/R42G/S66L/T262R/V114A/V67L/W38E/Y59H/Y61H/Y89S); experiment: biochemical; format: binding
T10 construct: Epstein-Barr virus (EBV) transformed homozygous cell lines were used as sources; endogenous in cells; host or cells: Herluf (EBV-transformed homozygous B cell line)

DRB1*1302 (DR6w19) = molecular target: T11, DRB1*1302 (DR6w19) (Homo sapiens, UniProt P01903+P01911, A100E/A169T/K41T/L162R/M171V/P40S/Q125H/Q178H/Q39Y/Q99D/R42S/S66N/T262R/V115G/W38E/Y61H); experiment: biochemical; format: binding
T11 construct: Epstein-Barr virus (EBV) transformed homozygous cell lines were used as sources; the source of Class II molecules the EBV transformed homozygous cell line H0301; endogenous in cells; host or cells: H0301 (EBV-transformed homozygous B cell line)

DRB1*0101 (DR1) = molecular target: T12, DRB1*0101 (DR1) (Homo sapiens, UniProt P01903+P01911, A100R/D57E/F55L/F60I/F76Y/I96L/L162R/M171V/P40L/Q125E/R42F/V115G/Y59C); experiment: biochemical; format: binding; conditions: Binding Capacity (IC 50% nM) DR1,4,7 DRB1
T12 construct: Epstein-Barr virus (EBV) transformed homozygous cell lines were used as sources; endogenous in cells; host or cells: LG2 (EBV-transformed homozygous B cell line)

[3] = Binding Capacity (IC 50% nM) Other Alleles DR9
[4] = Binding Capacity (IC 50% nM) DR1,4,7 DR4w4
[5] = read-out: Binding Capacity (IC 50% nM) Other Alleles DR8w2
[6] = Binding Capacity (IC 50% nM) Other Alleles DR2w2a
[7] = read-out: Binding Capacity (IC 50% nM) Other Alleles DR5w11
[8] = Binding Capacity (IC 50% nM) Other Alleles DR4w15
[9] = Binding Capacity (IC 50% nM) DR1,4,7 DR7
[10] = read-out: Binding Capacity (IC 50% nM) Other Alleles DR2w2b
[11] = Binding Capacity (IC50% nM) DR5w12
[12] = read-out: Binding Capacity (IC 50% nM) Other Alleles DR5w12
[13] = Binding Capacity (IC50% nM) DR6w19
[14] = Binding Capacity (IC 50% nM) Other Alleles DR6w19
[15] = Binding Capacity (IC50% nM) DR9
[16] = read-out: Binding Capacity (IC 50% nM) Other Alleles DR9
[17] = Binding Capacity (IC50% nM) DR8w2
[18] = read-out: Binding Capacity (IC 50% nM) Other Alleles DR2w2a
[19] = read-out: Binding Capacity (IC 50% nM) Other Alleles DR4w15
[20] = Binding Capacity (IC 50% nM) Other Alleles DR2w2b
[21] = read-out: Binding Capacity (IC 50% nM) Other Alleles DR6w19

T6 sequence (P01903 26-254, other chains not shown): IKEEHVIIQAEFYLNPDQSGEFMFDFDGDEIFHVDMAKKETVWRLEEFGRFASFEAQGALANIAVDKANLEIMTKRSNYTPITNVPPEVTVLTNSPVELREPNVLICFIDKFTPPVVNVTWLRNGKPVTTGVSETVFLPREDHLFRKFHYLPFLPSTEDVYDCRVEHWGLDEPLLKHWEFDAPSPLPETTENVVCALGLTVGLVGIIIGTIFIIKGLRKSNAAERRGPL

SMILES	IC50 (DRB1*0901 (DR9); [3])	IC50 (DRB1*0401 (DR4w4); [4])	IC50 (DRB1*0301 (DR3w17) [1])	IC50 (DRB1*0802 (DR8w2); [5])	IC50 (DRB1*0301 (DR3w17) [2])	IC50 (DRB5*0101 (DR2w2a); [6])	IC50 (DRB1*1101 (DR5w11); [7])	IC50 (DRB1*0405 (DR4w15); [8])	IC50 (DRB1*0701 (DR7); [9])	IC50 (DRB1*1501 (DR2w2b); [10])	IC50 (DRB1*1201 (DR5w12); [11])	IC50 (DRB1*1201 (DR5w12); [12])	IC50 (DRB1*1302 (DR6w19); [13])	IC50 (DRB1*1302 (DR6w19); [14])	IC50 (DRB1*0101 (DR1))	IC50 (DRB1*0901 (DR9); [15])	IC50 (DRB1*0901 (DR9); [16])	IC50 (DRB1*0802 (DR8w2); [17])	IC50 (DRB5*0101 (DR2w2a); [18])	IC50 (DRB1*0405 (DR4w15); [19])	also measured
CC[C@H](C)[C@H](N)C(=O)N1CCC[C@H]1C(=O)N[C@@H](CCC(N)=O)C(=O)N[C@@H](CCC(=O)O)C(=O)N[C@@H](Cc1c[nH]c2ccccc12)C(=O)N[C@@H](CCCCN)C(=O)N1CCC[C@H]1C(=O)N[C@@H](C)C(=O)N[C@H](C(=O)N[C@H](C(=O)N[C@H](C(=O)N[C@@H](CCCCN)C(=O)N[C@H](C(=O)N[C@@H](CC(C)C)C(=O)N1CCC[C@H]1C(=O)N[C@@H](C)C(=O)O)C(C)C)C(C)C)[C@@H](C)O)[C@@H](C)CC [Peptide 1136.21]	< 1000 nM	< 1000 nM	> 10000 nM	> 1000 nM	> 1000 nM	< 1000 nM	> 1000 nM	< 1000 nM	< 1000 nM	> 1000 nM	> 10000 nM	> 1000 nM	259 nM	< 1000 nM	< 1000 nM	–	–	–	–	–	–
CC[C@H](C)[C@H](NC(=O)[C@H](CC(=O)O)NC(=O)[C@H](CC(C)C)NC(=O)[C@@H](NC(=O)CNC(=O)[C@@H](NC(=O)[C@@H](NC(=O)[C@@H](NC(=O)[C@@H](NC(=O)[C@H](C)NC(=O)[C@H](CC(C)C)NC(=O)[C@@H](NC(=O)[C@H](CC(N)=O)NC(=O)[C@H](CO)NC(=O)[C@H](CC(C)C)NC(=O)[C@@H](N)CC(N)=O)C(C)C)[C@@H](C)O)[C@@H](C)CC)[C@@H](C)O)[C@@H](C)O)C(C)C)C(=O)O [Peptide 1136.24]	–	–	> 10000 nM	> 1000 nM	> 1000 nM	–	> 1000 nM	–	< 1000 nM	–	> 10000 nM	> 1000 nM	–	< 1000 nM	< 1000 nM	> 10000 nM	> 1000 nM	> 10000 nM	> 1000 nM	> 1000 nM	IC50 (DRB1*0401 (DR4w4); read-out: Binding Capacity (IC 50% nM) DR1,4,7 DR4w4): > 1000 nM; IC50 (DRB1*1101 (DR5w11); Binding Capacity (IC50% nM) DR5w11): > 10000 nM; IC50 (DRB1*1501 (DR2w2b); [20]): < 1000 nM
CC[C@H](C)[C@H](NC(=O)[C@H](CC(C)C)NC(=O)[C@H](CC(=O)O)NC(=O)[C@@H](NC(=O)[C@H](Cc1ccccc1)NC(=O)[C@H](Cc1ccc(O)cc1)NC(=O)[C@H](Cc1c[nH]cn1)NC(=O)[C@H](Cc1c[nH]cn1)NC(=O)[C@@H](N)[C@@H](C)O)C(C)C)C(=O)NCC(=O)NCC(=O)N[C@@H](C)C(=O)N[C@@H](CCSC)C(=O)N[C@@H](CC(C)C)C(=O)N[C@@H](CO)C(=O)N[C@@H](CC(C)C)C(=O)O [Peptide 1136.47]	–	< 1000 nM	> 10000 nM	> 1000 nM	> 1000 nM	< 1000 nM	> 1000 nM	–	–	–	> 10000 nM	> 1000 nM	> 10000 nM	–	< 1000 nM	> 10000 nM	> 1000 nM	> 10000 nM	–	> 1000 nM	IC50 (DRB1*0701 (DR7); read-out: Binding Capacity (IC 50% nM) DR1,4,7 DR7): > 1000 nM; IC50 (DRB1*1501 (DR2w2b); [20]): < 1000 nM; IC50 (DRB1*1302 (DR6w19); [21]): > 1000 nM
CC(C)[C@H](NC(=O)[C@H](CO)NC(=O)[C@@H](NC(=O)[C@H](C)NC(=O)[C@H](CO)NC(=O)[C@H](CO)NC(=O)[C@H](C)NC(=O)[C@H](C)NC(=O)[C@H](Cc1ccc(O)cc1)NC(=O)[C@@H](NC(=O)[C@H](CO)NC(=O)CNC(=O)[C@H](CCC(N)=O)NC(=O)[C@@H]1CCCN1C(=O)[C@@H](N)CCC(=O)O)[C@@H](C)O)[C@@H](C)O)C(=O)N[C@@H](CC(=O)O)C(=O)O [Peptide 1136.71]	< 1000 nM	< 1000 nM	> 10000 nM	> 1000 nM	> 1000 nM	–	> 1000 nM	< 1000 nM	< 1000 nM	> 1000 nM	> 10000 nM	> 1000 nM	> 10000 nM	–	< 1000 nM	–	–	> 10000 nM	> 1000 nM	–	IC50 (DRB1*1501 (DR2w2b); Binding Capacity (IC50% nM) DR2w2b): > 10000 nM; IC50 (DRB1*1302 (DR6w19); [21]): > 1000 nM
